The results in this text go back to ChEMBL document CHEMBL4152331, “Thiodipeptides targeting the intestinal oligopeptide transporter as a general approach to improving oral drug delivery” (Eur J Med Chem, 2018).

What is called Ki is the equilibrium dissociation constant of an inhibitor or competing ligand from its target. Usually Papp A→B stands for the apparent permeability from the apical to the basolateral side of a cell layer. One may read the half-life as the time needed for the level to fall by half in the phase considered. Read a high half-life as slow loss. In general, AUC refers to concentration integrated over time. Usually Cmax stands for the highest concentration seen after dosing. What is called Tmax is the time from dosing to the highest level.

Data set [1] has as its target T1, Solute carrier family 15 member 1 (Oryctolagus cuniculus, UniProt P36836).
T1 sequence (P36836 whole entry): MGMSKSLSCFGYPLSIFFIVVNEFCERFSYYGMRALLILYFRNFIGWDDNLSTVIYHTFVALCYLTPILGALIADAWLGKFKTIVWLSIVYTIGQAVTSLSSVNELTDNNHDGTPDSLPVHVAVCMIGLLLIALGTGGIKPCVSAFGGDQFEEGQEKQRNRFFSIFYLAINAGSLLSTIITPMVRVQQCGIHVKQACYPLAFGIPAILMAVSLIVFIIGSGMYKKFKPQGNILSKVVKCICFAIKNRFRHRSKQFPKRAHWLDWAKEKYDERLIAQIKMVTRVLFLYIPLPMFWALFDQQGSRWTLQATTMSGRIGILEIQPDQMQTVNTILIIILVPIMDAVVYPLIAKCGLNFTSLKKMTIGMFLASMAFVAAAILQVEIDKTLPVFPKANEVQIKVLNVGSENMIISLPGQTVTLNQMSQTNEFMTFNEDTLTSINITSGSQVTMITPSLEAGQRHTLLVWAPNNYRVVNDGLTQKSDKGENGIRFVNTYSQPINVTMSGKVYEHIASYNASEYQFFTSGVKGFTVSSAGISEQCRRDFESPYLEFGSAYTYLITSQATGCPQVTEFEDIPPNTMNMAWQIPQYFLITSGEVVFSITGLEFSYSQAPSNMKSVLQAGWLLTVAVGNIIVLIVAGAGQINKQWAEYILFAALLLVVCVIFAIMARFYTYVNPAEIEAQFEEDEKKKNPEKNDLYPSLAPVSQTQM
Briefly: Binding affinity to rabbit PepT1 expressed in Xenopus laevis oocytes assessed as inhibition of [3H]-D-Phe-L-Gln uptake by Michaelis-Menten kinetics analysis. It counts as ADME, cell-based.

The nature of data set [2]: Stability of the compound in pH 5.5 buffer. In kind it is physicochemical.
The target in data set [3] is T2, Solute carrier family 15 member 1 (Homo sapiens, UniProt P46059).
T2 sequence (P46059 whole entry): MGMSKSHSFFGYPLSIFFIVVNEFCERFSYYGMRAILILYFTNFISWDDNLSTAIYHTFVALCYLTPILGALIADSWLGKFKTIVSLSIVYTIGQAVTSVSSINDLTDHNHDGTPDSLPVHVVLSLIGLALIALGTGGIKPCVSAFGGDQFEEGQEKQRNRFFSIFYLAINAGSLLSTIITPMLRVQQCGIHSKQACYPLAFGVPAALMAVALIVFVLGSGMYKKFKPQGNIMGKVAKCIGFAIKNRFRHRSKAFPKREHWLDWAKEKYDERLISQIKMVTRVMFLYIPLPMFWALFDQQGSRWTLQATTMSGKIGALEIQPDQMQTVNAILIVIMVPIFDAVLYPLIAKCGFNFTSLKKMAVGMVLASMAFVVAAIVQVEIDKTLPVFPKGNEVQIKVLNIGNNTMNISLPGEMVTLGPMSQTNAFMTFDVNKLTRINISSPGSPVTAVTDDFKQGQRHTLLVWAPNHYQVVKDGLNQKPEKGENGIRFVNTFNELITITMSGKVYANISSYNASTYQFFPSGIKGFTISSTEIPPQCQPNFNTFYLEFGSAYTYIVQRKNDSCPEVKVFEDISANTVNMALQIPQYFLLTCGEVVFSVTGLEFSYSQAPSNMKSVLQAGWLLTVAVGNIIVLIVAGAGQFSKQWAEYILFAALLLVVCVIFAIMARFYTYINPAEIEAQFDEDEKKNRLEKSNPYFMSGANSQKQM
Briefly: Ratio of substrate activity of FSA to compound at PepT1 in human Caco2 cells assessed as apparent permeability form apical to basolateral side at 2 mM in presence of Gly-Gln after 1 hr by HPLC analysis. As to conditions: caco-2, 1 h, 2000 µM. For orientation: Passage across Caco-2 layers is used to estimate intestinal permeability.

Another data set deals with T3, PepT1 (Homo sapiens, UniProt P46059).
T3 sequence (P46059 whole entry): T2 sequence (P46059 whole entry)
Put plainly: Substrate activity at PepT1 in human Caco2 cells assessed as apparent permeability form apical to basolateral side at 2 mM in presence of Gly-Gln after 1 hr by HPLC analysis. As to conditions: Caco-2, with Gly-Gln.

A further data set concerns Caco-2. Briefly: Ratio of apparent permeability of FSA to compound in human Caco2 cells from apical to basolateral side at 2 mM after 1 hr by HPLC analysis. The conditions noted are these: caco-2, 1 h, 2000 µM.
A short description of data set [4]: Apparent permeability of the compound in human Caco2 cells from apical to basolateral side at 2 mM after 1 hr by HPLC analysis. As to conditions: Caco-2.
Data set [5] can be described thus: Half life in rat liver homogenate at 0.5 mM after 24 hrs by HPLC analysis. In kind it is ADME, tissue-based.
In data set [6] the test system is Rattus norvegicus. Put plainly: AUC in Sprague-Dawley rat assessed as ibuprofen release level at 10 mg/kg, po by LC-MS/MS analysis. As to conditions: in vivo.
The subject of data set [7] is Rattus norvegicus. Briefly: Cmax in Sprague-Dawley rat assessed as ibuprofen release level at 10 mg/kg, po by LC-MS/MS analysis. The conditions noted are these: in vivo.
In data set [8] the test system is Rattus norvegicus. Briefly: Tmax in Sprague-Dawley rat assessed as ibuprofen release level at 10 mg/kg, po by LC-MS/MS analysis. The conditions noted are these: in vivo.
In data set [9] the test system is Rattus norvegicus. Briefly: Relative bioavailability in Sprague-Dawley rat assessed as ibuprofen release level at 10 mg/kg, po by LC-MS/MS analysis. As to conditions: in vivo.
Data set [10] deals with Rattus norvegicus. Briefly: Bioavailability in Sprague-Dawley rat at 6 mg/kg, po by LC-MS/MS analysis. The conditions noted are these: in vivo.

For `C[C@H](N)C(=S)N[C@@H](CC(=O)OCCOCn1cnc2c(=O)[nH]c(N)nc21)C(=O)O`, the Ki result in [1] is “Nd(Unstable)”. The Stability entry in data set [2] is listed as “Unstable”.
On to `CC(=O)Oc1ccccc1C(=O)OCCOCCOCCOC(=O)C[C@H](NC(=S)[C@H](C)N)C(=O)O`, for which the Ki result in data set [1] is “Nd(Unstable)”. Moreover, the Stability entry in data set [2] is “Unstable”.
As for `C[C@H](N)C(=S)N[C@@H](COC(=O)CC1(CN)CCCCC1)C(=O)O`, the Ratio was 0.69 in [3] and 0.46 with Caco-2. In addition, the Papp A→B at 1 h, 2000 µM on PepT1 worked out at 0.4 ×10⁻⁶ cm/s.
On to `COc1ccc2cc(CC/C(C)=N/OCCOC(=O)C[C@H](NC(=S)[C@H](C)N)C(=O)O)ccc2c1`, for which the figures for the Ratio (in [3]; with Caco-2) were 1.3 and 1.94, respectively. In addition, the Ki in [1] (read-out: Ki) is 80 µM. Moreover, the Papp A→B at 1 h, 2000 µM is 9.7 ×10⁻⁶ cm/s in data set [4] and 4.4 ×10⁻⁶ cm/s on PepT1.
With `C[C@H](NC(=O)[C@@H](N)Cc1ccccc1)C(N)=S`, on PepT1, the Papp A→B at 1 h, 2000 µM amounted to 1.9 ×10⁻⁶ cm/s.
Regarding `CC(C)c1cccc(C(C)C)c1OC(=O)C[C@H](NC(=S)[C@H](C)N)C(=O)O`, the Ratio is recorded as 0.89 in data set [3] and 0.41 with Caco-2. Moreover, the apical-to-basolateral permeability (Papp A→B) at 1 h, 2000 µM (in [4]; at PepT1) was 0.5 ×10⁻⁶ cm/s in each case. The half-life at 500 µM in data set [5] was 7.3 h.
On to `CC(C)Cc1ccc([C@@H](C)C(=O)OC[C@H](NC(=S)[C@H](C)N)C(=O)O)cc1`, for which the Ratio in [3] was found to be 1.07; in the data set on Caco-2 it was 1.29. The Papp A→B at 1 h, 2000 µM on PepT1 worked out at 2.1 ×10⁻⁶ cm/s. In data set [5], this compound showed a half-life at 500 µM of 17.9 h. In the data set with Rattus norvegicus [6], the exposure (AUC) came to 700 ng·h/mL. Also, the Cmax with Rattus norvegicus [7] worked out at 200 ng/mL. Further, the Tmax in the data set with Rattus norvegicus [8] was 3.2 h. Also, the F with Rattus norvegicus [9] is given as 2.8%.
`CC(C)Cc1ccc(C(C)C(=O)O)cc1` (configuration not stated) [IBUPROFEN] displayed a F in the data set on Rattus norvegicus [10] of 100%.
